Measurements reported in US10696615B2, “Prenylated hydroxystilbenes” (The University of Sydney, priority 2011, dated 2020).

What was measured:
NCI-H322M = assay: NCI in vitro cancer screen, Non-Small Cell Lung Cancer; format: cell-based, human; details: Non-Small Cell Lung Cancer
ACHN = assay: NCI in vitro cancer screen, Renal Cancer; format: cell-based, human; details: Renal Cancer
IGROV1 = assay: NCI in vitro cancer screen, Ovarian Cancer; format: cell-based, human; details: IGROV1, Ovarian Cancer
MALME-3M = assay: NCI in vitro cancer screen, Melanoma; format: cell-based, human; details: MALME-3M, Melanoma
SF-539 = assay: NCI in vitro cancer screen, CNS Cancer; format: cell-based; details: SF-539, CNS Cancer
MCF7 = assay: NCI in vitro cancer screen, Breast Cancer; format: cell-based, human; details: MCF7, Breast Cancer
KM12 = assay: NCI in vitro cancer screen, Colon Cancer; format: cell-based, human; details: KM12, Colon Cancer
SNB-75 = assay: NCI in vitro cancer screen, CNS Cancer; format: cell-based, human; details: SNB-75, CNS Cancer
MDA-MB-435 = assay: NCI in vitro cancer screen, Melanoma; format: cell-based, human; details: MDA-MB-435, Melanoma
HCC-2998 = assay: NCI in vitro cancer screen, Colon Cancer; format: cell-based, human; details: HCC-2998, Colon Cancer
A549/ATCC = assay: NCI in vitro cancer screen, Non-Small Cell Lung Cancer; format: cell-based, human; details: Non-Small Cell Lung Cancer
NCI-H522 = assay: as above; format: cell-based, human; details: NCI-H522, Non-Small Cell Lung Cancer
OVCAR-3 = assay: NCI in vitro cancer screen, Ovarian Cancer; format: cell-based, human; details: OVCAR-3, Ovarian Cancer
NCI-H226 = assay: NCI in vitro cancer screen, Non-Small Cell Lung Cancer; format: cell-based, human; details: NCI-H226, Non-Small Cell Lung Cancer
U251 = assay: NCI in vitro cancer screen, CNS Cancer; format: cell-based, human; details: U251, CNS Cancer
CAKI-1 = assay: NCI in vitro cancer screen, Renal Cancer; format: cell-based, human; details: CAKI-1, Renal Cancer
EKVX = assay: NCI in vitro cancer screen, Non-Small Cell Lung Cancer; format: cell-based, human; details: Non-Small Cell Lung Cancer
SN12C = assay: NCI in vitro cancer screen, Renal Cancer; format: cell-based, human; details: Renal Cancer
SK-MEL-2 = assay: NCI in vitro cancer screen, Melanoma; format: cell-based, human; details: SK-MEL-2, Melanoma
HS 578T = assay: NCI in vitro cancer screen, Breast Cancer; format: cell-based, human; details: Breast Cancer
[1] = test system: MDA-MB-231 (MDA-MB-231/ATCC); assay: NCI in vitro cancer screen, Breast Cancer; format: cell-based, human; details: MDA-MB-231/ATCC, Breast Cancer
A498 = assay: NCI in vitro cancer screen, Renal Cancer; format: cell-based, human; details: A498, Renal Cancer
SW-620 = assay: NCI in vitro cancer screen, Colon Cancer; format: cell-based, human; details: SW-620, Colon Cancer
HCT-15 = assay: NCI in vitro cancer screen, Colon Cancer; format: cell-based, human; details: HCT-15, Colon Cancer
PC-3 = assay: NCI in vitro cancer screen, Prostate Cancer; format: cell-based, human; details: PC-3, Prostate Cancer
SF-268 = assay: NCI in vitro cancer screen, CNS Cancer; format: cell-based, human; details: SF-268, CNS Cancer
TK-10 = assay: NCI in vitro cancer screen, Renal Cancer; format: cell-based, human; details: TK-10, Renal Cancer
[2] = Homo sapiens, read-out: LC50 (the source's name)

CC(C)=CCOc1cc(O)cc(/C=C/c2ccc(O)c(O)c2)c1CC=C(C)C [USYDS14, (E)-2-(3-methyl-2-buten-1-yl)-3-(3-methyl-2-butenyloxy)-3′,4′,5-trihydroxystilbene]
GI50 (NCI-H322M; Homo sapiens): 12.5 µM
LC50 (50% lethal concentration) (NCI-H322M; Homo sapiens): 52.8 µM
TGI (NCI-H322M): 25.7 µM
GI50 (ACHN; Homo sapiens): 2.98 µM
CC50 (ACHN; [2]): 36.5 µM
TGI (ACHN): 12.5 µM
GI50 (IGROV1; Homo sapiens, IGROV-1): 3.65 µM
CC50 (IGROV1; Homo sapiens, IGROV-1, read-out: LC50 (the source's name)): 65.4 µM
TGI (IGROV1): 13.7 µM
GI50 (MALME-3M; Homo sapiens): 3.14 µM
CC50 (MALME-3M; [2]): 54.8 µM
TGI (MALME-3M): 21.8 µM
GI50 (SF-539; Homo sapiens): 2.96 µM
CC50 (SF-539; [2]): 37.8 µM
TGI (SF-539): 10.5 µM
GI50 (MCF7; Homo sapiens): 2.74 µM
CC50 (MCF7; [2]): 41.9 µM
TGI (MCF7): 11.8 µM
GI50 (KM12; Homo sapiens): 3.74 µM
CC50 (KM12; [2]): 57.4 µM
TGI (KM12): 14.4 µM
GI50 (SNB-75; Homo sapiens): 1.79 µM
CC50 (SNB-75; [2]): 29.3 µM
TGI (SNB-75): 7.8 µM
GI50 (MDA-MB-435; Homo sapiens): 0.373 µM
CC50 (MDA-MB-435; [2]): 40 µM
TGI (MDA-MB-435): 8.45 µM
TGI (HCC-2998): 10.6 µM
GI50 (HCC-2998; Homo sapiens): 2.9 µM
CC50 (HCC-2998; [2]): 40.7 µM
GI50 (A549/ATCC; Homo sapiens): 4.33 µM
CC50 (A549/ATCC; [2]): 45.5 µM
TGI (A549/ATCC): 16.5 µM
GI50 (NCI-H522; Homo sapiens): 0.75 µM
CC50 (NCI-H522; [2]): 5.85 µM
TGI (NCI-H522): 2.26 µM
GI50 (OVCAR-3; Homo sapiens): 3.52 µM
CC50 (OVCAR-3; [2]): 41.1 µM
TGI (OVCAR-3): 13.5 µM
GI50 (NCI-H226; Homo sapiens): 1.72 µM
LC50 (50% lethal concentration) (NCI-H226; Homo sapiens): 7.52 µM
TGI (NCI-H226): 3.6 µM
GI50 (U251; Homo sapiens, U-251): 3.09 µM
CC50 (U251; Homo sapiens, U-251, read-out: LC50 (the source's name)): 39.4 µM
TGI (U251): 12.7 µM
TGI (CAKI-1): 17.5 µM
GI50 (CAKI-1; Homo sapiens): 3.59 µM
CC50 (CAKI-1; [2]): 45.4 µM
GI50 (EKVX; Homo sapiens): 6.45 µM
CC50 (EKVX; [2]): 51.7 µM
TGI (EKVX): 21.2 µM
GI50 (SN12C; Homo sapiens): 3.61 µM
CC50 (SN12C; [2]): 42 µM
TGI (SN12C): 15.1 µM
GI50 (SK-MEL-2; Homo sapiens): 3.72 µM
LC50 (SK-MEL-2; Homo sapiens): 41.2 µM
TGI (SK-MEL-2): 12.5 µM
TGI (HS 578T): 20.5 µM
GI50 (HS 578T; Homo sapiens): 2.71 µM
CC50 (HS 578T; [2]): > 100 µM
GI50 ([1]; Homo sapiens): 3.15 µM
CC50 [1, 2]: 45.3 µM
TGI [1]: 14.3 µM
TGI (A498): 26.6 µM
GI50 (A498; Homo sapiens): 13 µM
CC50 (A498; [2]): 54.6 µM
GI50 (SW-620; Homo sapiens): 2.88 µM
CC50 (SW-620; [2]): 63.8 µM
TGI (SW-620): 16.7 µM
TGI (HCT-15): 10.4 µM
GI50 (HCT-15; Homo sapiens): 2.06 µM
CC50 (HCT-15; [2]): 43.3 µM
GI50 (PC-3; Homo sapiens): 6.65 µM
CC50 (PC-3; [2]): 55 µM
TGI (PC-3): 21.6 µM
GI50 (SF-268; Homo sapiens): 4.65 µM
CC50 (SF-268; [2]): 48.5 µM
TGI (SF-268): 17.8 µM
GI50 (TK-10; Homo sapiens): 3.79 µM
LC50 (TK-10; Homo sapiens): 35.4 µM
TGI (TK-10): 12.1 µM
